Test results: ChEMBL document CHEMBL5143674, “Discovery of benzo[d]oxazol-2(3H)-one derivatives as a new class of TNIK inhibitors for the treatment of colorectal cancer” (Bioorg Med Chem Lett, 2022)
Activity calls are given as the source filed them. No cut-off for these calls is given here.

What was measured:
[1] = target: TRAF2 and NCK-interacting protein kinase (Homo sapiens, UniProt Q9UKE5); assay: Inhibition of human recombinant TNIK (1 to 367 residues) using RLGRDKYKTLRQIRQ as substrate incubated for 40 mins in presence of Mg/ATP mix by [gamma p33]-ATP based radiometric scintillation counting method
Chain of TRAF2 and NCK-interacting protein kinase (Q9UKE5 whole entry, the tested form may be a part): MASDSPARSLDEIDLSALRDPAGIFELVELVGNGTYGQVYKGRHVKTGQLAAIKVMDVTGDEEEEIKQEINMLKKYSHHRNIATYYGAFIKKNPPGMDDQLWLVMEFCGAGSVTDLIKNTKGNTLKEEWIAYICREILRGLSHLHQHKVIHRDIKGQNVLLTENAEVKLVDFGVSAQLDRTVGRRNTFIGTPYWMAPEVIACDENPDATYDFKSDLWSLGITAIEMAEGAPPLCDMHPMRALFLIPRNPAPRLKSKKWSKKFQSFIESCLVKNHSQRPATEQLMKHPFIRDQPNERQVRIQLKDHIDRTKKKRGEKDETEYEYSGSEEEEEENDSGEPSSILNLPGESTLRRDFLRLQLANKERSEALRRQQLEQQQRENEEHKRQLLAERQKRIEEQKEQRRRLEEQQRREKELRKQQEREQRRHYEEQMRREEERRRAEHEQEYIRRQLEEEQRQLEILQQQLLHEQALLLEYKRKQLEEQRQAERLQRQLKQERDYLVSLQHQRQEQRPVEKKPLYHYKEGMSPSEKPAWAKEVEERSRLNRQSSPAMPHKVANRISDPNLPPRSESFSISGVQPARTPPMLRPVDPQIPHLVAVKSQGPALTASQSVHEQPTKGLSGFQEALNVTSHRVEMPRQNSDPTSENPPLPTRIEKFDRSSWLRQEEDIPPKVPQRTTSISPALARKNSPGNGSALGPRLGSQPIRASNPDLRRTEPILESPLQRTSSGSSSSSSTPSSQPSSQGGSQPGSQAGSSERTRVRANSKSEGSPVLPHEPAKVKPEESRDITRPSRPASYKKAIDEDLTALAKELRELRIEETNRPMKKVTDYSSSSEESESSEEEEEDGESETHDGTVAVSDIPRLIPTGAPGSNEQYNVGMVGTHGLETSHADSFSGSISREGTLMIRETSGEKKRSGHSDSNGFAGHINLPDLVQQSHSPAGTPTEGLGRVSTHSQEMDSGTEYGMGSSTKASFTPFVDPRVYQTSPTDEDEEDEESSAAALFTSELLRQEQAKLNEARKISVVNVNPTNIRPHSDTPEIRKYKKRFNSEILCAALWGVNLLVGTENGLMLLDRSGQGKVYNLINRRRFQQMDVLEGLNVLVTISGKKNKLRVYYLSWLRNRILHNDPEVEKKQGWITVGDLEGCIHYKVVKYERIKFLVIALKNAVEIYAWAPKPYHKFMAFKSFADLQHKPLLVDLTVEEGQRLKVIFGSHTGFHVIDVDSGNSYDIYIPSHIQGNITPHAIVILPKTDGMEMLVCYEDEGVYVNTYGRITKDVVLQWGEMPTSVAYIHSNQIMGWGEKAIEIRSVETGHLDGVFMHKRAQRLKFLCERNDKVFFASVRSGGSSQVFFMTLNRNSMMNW

HCT-116 [2] = assay: Antiproliferative activity against human HCT-116 cells assessed as inhibition of cell proliferation incubated for 72 hrs by MTT assay; assay type: functional, cell-based; conditions: HCT-116, 72 h
HCT-116 [3] = assay: Inhibition of colony formation in human HCT-116 cells assessed as inhibition of cell proliferation at 1.25 to 5 uM incubated for 14 days by crystal violet staining based microscopic analysis; assay type: functional; conditions: dose 1.25-5 µM, time 14.0 day, DDE = dose-dependent effect
[4] = target: Vascular endothelial growth factor receptor 2 (Homo sapiens) (UniProt P35968); assay: Inhibition of recombinant human KDR (790 to end residues) using myelin basic protein as substrate incubated for 40 mins in presence of [gamma-33P]-ATP by radiometric based scintillation counter assay
Chain of Vascular endothelial growth factor receptor 2 (Homo sapiens) (P35968 whole entry): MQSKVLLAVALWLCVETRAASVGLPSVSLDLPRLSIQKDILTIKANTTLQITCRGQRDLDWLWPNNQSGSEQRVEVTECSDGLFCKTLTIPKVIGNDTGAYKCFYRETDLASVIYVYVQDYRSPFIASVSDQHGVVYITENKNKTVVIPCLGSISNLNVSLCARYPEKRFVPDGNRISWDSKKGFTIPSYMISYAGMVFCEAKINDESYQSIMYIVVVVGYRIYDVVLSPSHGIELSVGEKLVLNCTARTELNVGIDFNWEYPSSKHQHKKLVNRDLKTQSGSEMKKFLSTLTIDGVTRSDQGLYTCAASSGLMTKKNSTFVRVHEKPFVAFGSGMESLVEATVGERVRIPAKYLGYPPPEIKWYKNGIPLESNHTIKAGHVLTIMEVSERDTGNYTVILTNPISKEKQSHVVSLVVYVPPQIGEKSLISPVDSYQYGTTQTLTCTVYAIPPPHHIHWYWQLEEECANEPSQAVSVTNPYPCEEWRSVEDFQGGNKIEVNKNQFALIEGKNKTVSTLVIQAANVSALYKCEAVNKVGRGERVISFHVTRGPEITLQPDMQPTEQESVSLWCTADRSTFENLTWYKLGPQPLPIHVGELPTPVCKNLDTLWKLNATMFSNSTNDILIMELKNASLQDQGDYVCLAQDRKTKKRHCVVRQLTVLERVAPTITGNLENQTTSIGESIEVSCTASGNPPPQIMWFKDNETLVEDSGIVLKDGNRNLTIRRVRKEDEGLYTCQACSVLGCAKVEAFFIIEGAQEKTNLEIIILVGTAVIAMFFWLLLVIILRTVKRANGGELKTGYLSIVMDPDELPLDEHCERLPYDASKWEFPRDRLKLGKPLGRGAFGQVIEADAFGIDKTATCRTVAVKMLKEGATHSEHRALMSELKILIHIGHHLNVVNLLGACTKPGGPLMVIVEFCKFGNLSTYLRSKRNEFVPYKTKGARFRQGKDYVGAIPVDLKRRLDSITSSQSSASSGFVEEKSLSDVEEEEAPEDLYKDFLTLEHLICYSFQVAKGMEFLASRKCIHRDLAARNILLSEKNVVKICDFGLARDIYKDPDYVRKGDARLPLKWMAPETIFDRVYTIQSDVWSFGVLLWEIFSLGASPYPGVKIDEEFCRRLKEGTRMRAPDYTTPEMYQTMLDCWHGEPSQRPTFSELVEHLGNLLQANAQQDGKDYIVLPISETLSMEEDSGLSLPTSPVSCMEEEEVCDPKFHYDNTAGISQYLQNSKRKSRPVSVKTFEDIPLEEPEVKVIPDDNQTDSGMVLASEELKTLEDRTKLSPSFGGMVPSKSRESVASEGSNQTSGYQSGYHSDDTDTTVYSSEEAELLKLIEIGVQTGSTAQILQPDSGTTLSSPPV

HCT-116 [5] = assay: Downregulation of nuclear TCF-4 protein expression in human HCT-116 cells at 10 to 40 uM incubated for 48 hrs by western blot analysis; assay type: functional, cell-based; conditions: dose 10-40 µM, DDE = dose-dependent effect
HCT-116 [6] = assay: Downregulation of nuclear beta-catenin protein expression in human HCT-116 cells at 10 to 40 uM incubated for 48 hrs by western blot analysis; assay type: functional, cell-based; conditions: dose 10-40 µM, DDE = dose-dependent effect
HCT-116 [7] = assay: Downregulation of c-Myc protein expression in human HCT-116 cells at 10 to 40 uM incubated for 48 hrs by western blot analysis; assay type: functional, cell-based; conditions: dose 10-40 µM
[8] = target: Vascular endothelial growth factor receptor 3 (Homo sapiens) (UniProt P35916); assay: Inhibition of human recombinant FLT4 (800 to end residues) using GGEEEEYFELVKKKK as substrate incubated for 40 mins in presence of [gamma-33P]-ATP by radiometric based scintillation counter assay
Chain of Vascular endothelial growth factor receptor 3 (Homo sapiens) (P35916 whole entry): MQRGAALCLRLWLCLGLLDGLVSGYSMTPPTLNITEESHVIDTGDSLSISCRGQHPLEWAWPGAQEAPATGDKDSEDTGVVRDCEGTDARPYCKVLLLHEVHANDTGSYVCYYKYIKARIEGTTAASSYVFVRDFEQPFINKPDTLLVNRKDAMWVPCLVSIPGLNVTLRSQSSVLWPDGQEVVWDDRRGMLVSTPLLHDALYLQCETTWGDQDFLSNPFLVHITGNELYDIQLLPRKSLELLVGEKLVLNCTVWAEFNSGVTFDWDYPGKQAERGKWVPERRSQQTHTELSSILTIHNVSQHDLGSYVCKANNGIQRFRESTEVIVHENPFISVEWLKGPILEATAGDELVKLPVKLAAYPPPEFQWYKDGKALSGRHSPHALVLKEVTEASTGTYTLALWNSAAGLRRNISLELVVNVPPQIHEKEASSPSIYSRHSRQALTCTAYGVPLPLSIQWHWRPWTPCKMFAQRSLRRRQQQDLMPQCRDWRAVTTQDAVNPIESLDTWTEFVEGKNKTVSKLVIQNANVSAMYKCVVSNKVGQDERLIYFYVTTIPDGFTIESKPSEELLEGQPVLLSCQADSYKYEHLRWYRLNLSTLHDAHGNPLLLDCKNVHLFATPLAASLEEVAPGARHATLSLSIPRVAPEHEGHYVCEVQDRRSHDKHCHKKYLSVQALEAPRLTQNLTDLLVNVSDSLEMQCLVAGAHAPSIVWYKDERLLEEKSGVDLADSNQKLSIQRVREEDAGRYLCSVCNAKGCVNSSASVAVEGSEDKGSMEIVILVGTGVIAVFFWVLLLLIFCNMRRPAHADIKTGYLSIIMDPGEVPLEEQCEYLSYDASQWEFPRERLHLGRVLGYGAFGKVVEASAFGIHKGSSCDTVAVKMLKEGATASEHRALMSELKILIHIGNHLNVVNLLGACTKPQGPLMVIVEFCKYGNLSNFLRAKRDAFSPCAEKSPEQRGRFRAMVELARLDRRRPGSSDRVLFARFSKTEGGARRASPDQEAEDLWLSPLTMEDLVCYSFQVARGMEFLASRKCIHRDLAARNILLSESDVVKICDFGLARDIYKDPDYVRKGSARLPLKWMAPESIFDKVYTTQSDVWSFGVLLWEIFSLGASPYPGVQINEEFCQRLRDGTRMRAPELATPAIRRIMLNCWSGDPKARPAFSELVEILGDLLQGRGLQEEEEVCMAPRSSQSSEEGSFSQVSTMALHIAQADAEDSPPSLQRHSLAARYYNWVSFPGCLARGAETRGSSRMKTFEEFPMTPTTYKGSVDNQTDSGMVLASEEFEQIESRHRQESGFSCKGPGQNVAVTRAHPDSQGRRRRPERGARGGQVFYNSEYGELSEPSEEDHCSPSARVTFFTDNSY

HCT-116 [9] = assay: Downregulation of Axin2 protein expression in human HCT-116 cells at 10 to 40 uM incubated for 48 hrs by western blot analysis; assay type: functional, cell-based; conditions: dose 10-40 µM
HCT-116 [10] = assay: Inhibition of cell migration in human HCT-116 cells at 1 uM incubated for 24 to 48 hrs by wound-closure assay; assay type: functional, cell-based; conditions: time 24-48 hrs

Structure (SMILES) | IC50 [1] [µM] | IC50 (HCT-116 [2]) [µM] | other results
N#Cc1cc(-c2ccc3c(c2)oc(=O)n3Cc2ccc(F)cc2)cnc1N | 0.156 | 8.25 | –
O=c1oc2cc(-c3cnc4ccnn4c3)ccc2n1Cc1ccc(F)cc1 | > 10 | – | –
O=c1oc2cc(-c3cnc4[nH]ccc4c3)ccc2n1Cc1cccc(C(F)(F)F)c1 | 2.84 | – | –
O=c1oc2cc(-c3cnc4[nH]ccc4c3)ccc2n1Cc1cccc(OC(F)(F)F)c1 | 0.289 | 7.06 | –
O=c1oc2cc(-c3cnc4[nH]ccc4c3)ccc2n1Cc1cccc(F)c1 | 0.09 | 5.92 | –
COc1cccc(Cn2c(=O)oc3cc(-c4cnc(C#N)c(C)c4)ccc32)c1 | > 10 | – | –
COc1cccc(Cn2c(=O)oc3cc(-c4ccc5[nH]c(C(=O)NC6CC6)cc5c4)ccc32)c1 | > 10 | – | –
O=c1oc2cc(-c3ccnc4[nH]ncc34)ccc2n1Cc1ccc(F)cc1 | 0.91 | > 100 | –
COc1cccc(Cn2c(=O)oc3cc(-c4ccc5[nH]cc(C(=O)NC6CC6)c5c4)ccc32)c1 | > 10 | – | –
COc1cc(Cn2c(=O)oc3cc(-c4cnc5[nH]ccc5c4)ccc32)ccc1F | 0.719 | 8.05 | –
O=c1oc2cc(-c3ccc4scnc4c3)ccc2n1Cc1ccc(F)cc1 | > 10 | – | –
Nc1ccc(-c2ccc3c(c2)oc(=O)n3Cc2ccc(F)cc2)cn1 | 0.234 | 16.5 | –
COc1cccc(Cn2c(=O)oc3cc(-c4ccc5[nH]ccc5c4)ccc32)c1 | 1.16 | – | –
COc1cccc(Cn2c(=O)oc3cc(-c4cncnc4)ccc32)c1 | 5.61 | – | –
COc1cccc(Cn2c(=O)oc3cc(-c4ccnc5[nH]ccc45)ccc32)c1 | 9 | – | –
O=c1oc2cc(-c3cnc4[nH]ccc4c3)ccc2n1Cc1cccc(OC(F)F)c1 | 1.74 | – | –
O=c1oc2cc(-c3cnc4ncccn34)ccc2n1Cc1ccc(F)cc1 | > 10 | – | –
O=c1oc2cc(-c3ccn4ncnc4c3)ccc2n1Cc1ccc(F)cc1 | 4.44 | – | –
COc1cccc(Cn2c(=O)oc3cc(-c4cnc5[nH]ccc5n4)ccc32)c1 | 3.98 | – | –
O=c1oc2cc(-c3cnc4[nH]ccc4c3)ccc2n1Cc1ccccc1F | 1.05 | – | –

Structure (SMILES) | IC50 [1] [µM] | IC50 (HCT-116 [2]) [µM] | other results
O[C@H]1CC[C@@H](Oc2cccc3cnc(Nc4ccc5nc[nH]c5c4)nc23)CC1 | – | 0.403 | –
O=c1cnc2cc(-c3ccc4c(c3)oc(=O)n4Cc3ccc(F)cc3)ccc2[nH]1 | > 10 | – | –
O=c1oc2cc(-c3ccc4[nH]ccc4c3)ccc2n1Cc1ccc(F)cc1 | 1.26 | – | –
COc1cccc(Cn2c(=O)oc3cc(-c4ccc(N)nc4)ccc32)c1 | 0.412 | 7.44 | –
O=c1oc2cc(-c3ccc4nncn4c3)ccc2n1Cc1ccc(F)cc1 | > 10 | – | –
COc1cccc(Cn2c(=O)oc3cc(-c4ccc5c(c4)CCN5)ccc32)c1 | 0.265 | > 100 | –
N#Cc1cccc(Cn2c(=O)oc3cc(-c4cnc5[nH]ccc5c4)ccc32)c1 | > 10 | – | –
O=c1oc2cc(-c3cnc4[nH]ccc4n3)ccc2n1Cc1ccc(F)cc1 | 4.08 | – | –
O=c1oc2cc(-c3cnc4cnccn34)ccc2n1Cc1ccc(F)cc1 | > 10 | – | –
O=c1oc2cc(-c3cnc4[nH]ccc4c3)ccc2n1Cc1ccc(F)cc1 | 0.11 | 5.99 | –
Cc1cccc(Cn2c(=O)oc3cc(-c4cnc5[nH]ccc5c4)ccc32)c1 | 0.356 | 5.12 | –
O=c1oc2cc(-c3cnc4cccnn34)ccc2n1Cc1ccc(F)cc1 | > 10 | – | –
COc1cccc(Cn2c(=O)oc3cc(-c4cccnc4)ccc32)c1 | 3.99 | – | –
O=c1oc2cc(-c3ccc4ncnn4c3)ccc2n1Cc1ccc(F)cc1 | 2.44 | – | –
Nc1ncnn2c(-c3ccc4c(c3)oc(=O)n4Cc3ccc(F)cc3)ccc12 | 0.663 | > 100 | –
O=c1oc2cc(-c3c[nH]c4ncccc34)ccc2n1Cc1ccc(F)cc1 | 0.228 | 11.8 | –
COc1cc(-c2ccc3c(c2)oc(=O)n3Cc2ccc(F)cc2)cnc1N | 0.61 | 36.4 | –
COc1cccc(Cn2c(=O)oc3cc(-c4cnc5[nH]ccc5c4)ccc32)c1 | 0.05 | 5 | inhibition (HCT-116 [3]): Dde; inhibition [4]: > 80%; Activity (HCT-116 [5]): Dde; Activity (HCT-116 [6]): Dde; Activity (HCT-116 [7]): Active; inhibition [8]: > 80%; Activity (HCT-116 [9]): Active; inhibition (HCT-116 [10]): Active
COc1cccc(Cn2c(=O)oc3cc(-c4cnc5cc[nH]c5c4)ccc32)c1 | > 10 | – | –
